A value given as a limit tells only on which side of the number the result lay.

From patent US11691989B2, “Macrocyclic indoles as Mcl-1 inhibitors” (ASCENTAGE PHARMA (SUZHOU) CO., LTD., priority 2018, dated 2023) come the findings set out here.

Data set [1] has as its target Mcl-1 protein (residues 171-323) (Homo sapiens (Human), UniProt Q07820). The data set can be described thus: Inhibition of Mcl-1 by fluorescence polarization (FP) competitive binding assay with FAM-Bid tracer. Particulars: 2 nM FAM-Bid, 20 nM Mcl-1, 30 min, read-out: Mc1-1 (FP). An outline of the steps:
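Competitive FP binding of compounds against FAM-Bid tracer (final 2 nM) on Mcl-1 (final 20 nM) in PBS with 0.01% BGG and 0.01% Triton X-100, 5% final DMSO.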
(In general: Polarisation of emitted light reports the rotation of a fluorescent probe.)

The test system of the next data set is OPM-2 cells. The data set can be described thus: Cell viability assay (OPM-2 cells), CCK-8. Format: cell-based. The settings on record: 5% FBS. The method in brief:
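OPM-2 myeloma cells (20000/well) incubated with serially diluted compound for 24 h at 37 °C, 5% CO2. Viability read by CCK-8 (4 h) absorbance at 450 nm, normalised to vehicle; IC50 from nonlinear regression.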

The next data set relates to NCI-H929 cells. Put plainly: Cell viability assay (NCI-H929 cells), CCK-8. Format: cell-based. The settings on record: 5% FBS. An outline of the steps:
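NCI-H929 cells (20000/well) exposed to serially diluted compounds for 24 h at 37 °C, 5% CO2. Viability by CCK-8, absorbance at 450 nm after 1-4 h, normalized to vehicle-treated cells. IC50 by nonlinear regression.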

Data set [2] is described as follows: Microsome clearance assay, mouse. It is filed as in vitro ADME. Particulars: 0.5 mg/ml protein, 1 mM NADPH, 60 minutes; for microsomal CLint at 5 μM: male, CD-1, mouse, pooled liver microsomes, pH 7.4, mouse liver microsomes, read-out: Mouse Liver Microsome Clint (μL/min/mg protein); for Mouse Liver Microsome Clint (μL/min/mg protein): mouse liver microsomes, 5 μM. How it is done: (§1) Representative Compounds of the Disclosure were tested in a microsome clearance assay. Pooled liver microsomes (20 mg/ml) from human, male Wister rat, and male CD-1 mouse were obtained from BD Bioscience (Franklin Lakes, N.J. USA). Incubation reaction mixtures contained a final concentration of 0.1M sodium phosphate buffer (pH 7.4), 0.5 mg/ml microsomal protein, 5 μM of test sample and 1 mM NADPH in a total volume of 400 μl. The incubations were done for 60 minutes and 300 μl of the mixtures was transferred to 150 μl of ice cold methanol to terminate reactions. After vortexes for 3 minutes and centrifuged at 4000 rpm at 4° C. for 10 minutes, the clear supernatant was used directly for analysis. The samples were analyzed by Applied Biosystems API 3200 Q TRAP LC/MS/MS system using electrospray ionization mode.
For orientation: Liver microsomes are vesicles of endoplasmic reticulum, rich in cytochrome P450 enzymes.

Data set [3] is described as follows: Microsome clearance assay, rat. It is filed as in vitro ADME. The settings on record: 0.5 mg/ml protein, 1 mM NADPH, 60 minutes; for microsomal CLint at 5 μM: male, Wister, rat, pooled liver microsomes, pH 7.4, rat liver microsomes, read-out: Rat Liver Microsome Clint (μL/min/mg protein); for Rat Liver Microsome Clint (μL/min/mg protein): rat liver microsomes, 5 μM. The protocol: as §1

Data set [4] in a line: Microsome clearance assay, human. It is filed as in vitro ADME. Particulars: 0.5 mg/ml protein, 1 mM NADPH, 60 minutes; for microsomal CLint at 5 μM: human, pooled liver microsomes, pH 7.4, human liver microsomes, read-out: Human Liver Microsome Clint (μL/min/mg protein); for Human Liver Microsome Clint (μL/min/mg protein): human liver microsomes, 5 μM. The protocol:
as §1

Data set [5] in a line: Kinetic solubility assay in PBS buffer. Particulars: PBS buffer, pH 6.5, aqueous buffer, thermodynamic from solid, read-out: Solubility (pH 6.5, μg/mL). Format: physicochemical. The protocol:
Representative Compounds of the Disclosure were tested in a kinetic solubility assay in PBS buffer. PBS buffer was prepared by dissolving 4.86 g of potassium dihydrogen phosphate and 5.09 g of disodium hydrogen phosphate dodecahydrate in 1 L of ultrapure water (final pH 6.5). 0.5 mg of test sample was dissolved in 1 mL of methanol and the stock solution was transferred into 2 mL EP tube, and evaporated at 50° C. for 3 h. To the tube was added 1 mL of PBS buffer and the mixture was stirred and shaken for 1-2 h. The solution was allowed to stand overnight and then filtered before HPLC analysis. Another 1.5 mg of the sample was dissolved in 3 mL of methanol to prepare a calibration curve with a series of concentration range of 5-500 μM. The solubility of each sample was determined by the measured peak area in HPLC.

Mcl-1 protein (residues 171-323), sequence (Q07820 171-323): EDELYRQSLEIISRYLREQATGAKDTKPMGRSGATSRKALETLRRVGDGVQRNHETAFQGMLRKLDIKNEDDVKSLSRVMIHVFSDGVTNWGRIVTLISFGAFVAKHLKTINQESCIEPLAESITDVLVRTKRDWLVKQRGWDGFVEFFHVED

Regarding `Cc1c(C(=O)O)n2c3ccc(Cl)c(c13)-c1c(nn3c1CCC3)CSCc1cc(n(C)n1)CSc1cc(c3ccc(F)cc3c1)OCCC2` [Cpd. No. 2, (Z)-1^5-chloro-9^6-fluoro-1^3,6^1-dimethyl-2^5,2^6-dihydro-1^1H,2^4H,6^1H-10-oxa-4,8-dithia-1(4,1)-indola-2(3,2)-pyrrolo[1,2-b]pyrazola-6(3,5)-pyrazola-9(3,1)-naphthalenacyclotridecaphane-1^2-carboxylic acid], the IC50 in data set [1] was found to be 0.014 µM; in the data set on OPM-2 cells (Homo sapiens, OPM-2, 24 h) it was 0.22 µM; with NCI-H929 cells (Homo sapiens, NCI-H929, 24 h) it was 0.053 µM. Also, the values for the microsomal CLint at 5 μM in data set [2], in data set [3] and in data set [4] were 53 µL/min/mg, 31.2 µL/min/mg and 18.2 µL/min/mg, respectively. Moreover, the solubility in data set [5] is under 1 µg/mL.

Regarding `Cc1c2c(nn1C)CSCc1cc(n(C)n1)CSc1cc(c3ccccc3c1)OCCCn1c(C(=O)O)c(Cl)c3c-2c(Cl)ccc31` [Cpd. No. 9, (Z)-1^3,1^5-dichloro-2^1,2^5,6^1-trimethyl-1^1H,2^1H,6^1H-10-oxa-4,8-dithia-1(4,1)-indola-2(4,3),6(3,5)-dipyrazola-9(3,1)-naphthalenacyclotridecaphane-1^2-carboxylic acid], the IC50 is 0.014 µM in data set [1]; 1.25 µM with OPM-2 cells (Homo sapiens, OPM-2, 24 h); 0.479 µM in the data set on NCI-H929 cells (Homo sapiens, NCI-H929, 24 h). The solubility in data set [5] was over 400 µg/mL.

For the molecule `Cc1c(C(=O)O)n2c3ccc(Cl)c(c13)-c1c(nn3c1CC(C)(C)C3)CSCc1cc(n(C)n1)CSc1cc(c3ccc(F)cc3c1)OCCC2` [Cpd. No. 3, (Z)-1^5-chloro-9^6-fluoro-1^3,2^5,2^5,6^1-tetramethyl-2^5,2^6-dihydro-1^1H,2^4H,6^1H-10-oxa-4,8-dithia-1(4,1)-indola-2(3,2)-pyrrolo[1,2-b]pyrazola-6(3,5)-pyrazola-9(3,1)-naphthalenacyclotridecaphane-1^2-carboxylic acid], the IC50 in data set [1] was determined as 0.014 µM; with OPM-2 cells (Homo sapiens, OPM-2, 24 h), 0.386 µM; in the data set on NCI-H929 cells (Homo sapiens, NCI-H929, 24 h) it was 0.391 µM. The solubility in data set [5] is under 1 µg/mL.

Take `Cc1c(C(=O)O)n2c3ccc(Cl)c(c13)-c1c(nn(C)c1C)CN(S(C)(=O)=O)Cc1cc(n(C)n1)CSc1cc(c3ccc(F)cc3c1)OCCC2` [Cpd. No. 34, (S)-(Z)-1^5-chloro-9^6-fluoro-1^3,2^1,2^5,6^1-tetramethyl-4-(methylsulfonyl)-1^1H,2^1H, 6^1H-10-oxa-8-thia-4-aza-1(4,1)-indola-2(4,3),6(3,5)-dipyrazola-9(3,1)-naphthalenacyclotridecaphane-1^2-carboxylate]: the IC50 is 2.6 µM in data set [1], over 10 µM with OPM-2 cells (24 hours) and 8.52 µM in the data set on NCI-H929 cells (24 hrs). In data set [2], the “Mouse Liver Microsome Clint (μL/min/mg protein)” value was 110 μL/min/mg protein. The “Rat Liver Microsome Clint (μL/min/mg protein)” value in data set [3] is on record as 13.0 μL/min/mg protein. For the same molecule, in data set [4], the “Human Liver Microsome Clint (μL/min/mg protein)” value is under 2.8 μL/min/mg protein.

Turning to `COCCN1Cc2cc(n(C)n2)CSc2cc(c3ccc(F)cc3c2)OCCCn2c(C(=O)O)c(C)c3c(c(Cl)ccc32)-c2c(nn3c2COCC3)C1` [Cpd. No. 50, (Z)-1^5-chloro-9^6-fluoro-4-(2-methoxyethyl)-1^3, 6^1-dim ethyl-2^6,2^7-dihydro-1^1H,2^4H,6^1H-10-oxa-8-thia-4-aza-2(3,2)-pyrazolo[5,1-c][1,4]oxazina-1 (4,1)-indola-6(3,5)-pyrazola-9(3,1)-naphthalenacyclotridecaphane-1^2-carboxylic acid], the IC50 in data set [1] amounted to 0.02 µM; in the data set on OPM-2 cells (Homo sapiens, OPM-2, 24 h), 1.64 µM; in the data set on NCI-H929 cells (Homo sapiens, NCI-H929, 24 h), 0.226 µM. For the same molecule, the results for the microsomal CLint at 5 μM in data set [2], in data set [3] and in data set [4] were 65.2 µL/min/mg, 22.2 µL/min/mg and 10.2 µL/min/mg, respectively.

Take `Cc1nn(C)c2c1-c1c(Cl)ccc3c1c(C)c(C(=O)O)n3CCCOc1cc(cc3cc(F)ccc13)SCc1cc(nn1C)CSC2` [Cpd. No. 28, (Z)-1^5-chloro-9^6-fluoro-1^3,2^1,2^3,6^1-tetramethyl-1^1H,2^1H,6^111-10-oxa-4,8-dithia-1(4,1)-indola-2(4,5),6(3,5)-dipyrazola-9(3,1)-naphthalenacyclotridecaphane-1^2-carboxylic acid]: the IC50 in data set [1] was determined as 0.014 µM; in the data set on OPM-2 cells (Homo sapiens, OPM-2, 24 h) it was 0.066 µM; in the data set with NCI-H929 cells (Homo sapiens, NCI-H929, 24 h), 0.047 µM. Further, the microsomal CLint at 5 μM was 116 µL/min/mg in data set [2], 38.4 µL/min/mg in data set [3] and 42.8 µL/min/mg in data set [4].

As to `Cc1c(C(=O)O)n2c3ccc(Cl)c(c13)-c1c(nn(C)c1C)CN(S(C)(=O)=O)Cc1cc(n(C)n1)CSc1cc(c3ccc(F)cc3c1)OCCC2` (atropisomer, axis not shown) [Cpd. No. 33, (R)-(Z)-1^5-chloro-9^6-fluoro-1^3,2^1,2^5, 6^1-tetramethyl-4-(methylsulfonyl)-1^1H,2^1H, 6′H-10-oxa-8-thia-4-aza-1(4,1)-indola-2(4,3),6(3,5)-dipyrazola-9(3,1)-naphthalenacyclotridecaphane-1^2-carboxylic acid], the IC50 in data set [1] amounted to 0.005 µM; with OPM-2 cells (24 hours) it was 0.19 µM; in the data set with NCI-H929 cells (24 hrs), 0.107 µM. For the same molecule, the “Mouse Liver Microsome Clint (μL/min/mg protein)” value in data set [2] was determined as 16.0 μL/min/mg protein. For the same molecule, in data set [3], the “Rat Liver Microsome Clint (μL/min/mg protein)” value amounted to 8.6 μL/min/mg protein. Further, in data set [4], the “Human Liver Microsome Clint (μL/min/mg protein)” value is under 2.8 μL/min/mg protein.

As to `Cc1c2c(nn1C)CSCc1cc(n(C)n1)CSc1cc(c3ccc(F)cc3c1)OCCCn1c(C(=O)O)c(CN(C)S(=O)(=O)C(F)(F)F)c3c-2c(Cl)ccc31` [Cpd. No. 23, (Z)-1^5-chloro-9^6-fluoro-2^1,2^5,6^1-trimethyl-1^3-(((1,1,1-trifluoro-N-methylmethyl)sulfonamido)methyl)-1^1H,2^1H,6^1H-10-oxa-4,8-dithia-1(4,1)-indola-2(4,3),6(3,5)-dipyrazola-9(3,1)-naphthalenacyclotridecaphane-1^2-carboxylic acid], the IC50 in data set [1] amounted to 0.016 µM; with OPM-2 cells (Homo sapiens, OPM-2, 24 h), 1.87 µM; in the data set with NCI-H929 cells (Homo sapiens, NCI-H929, 24 h), 1.07 µM. For the same molecule, the microsomal CLint at 5 μM in data set [2] was 52.4 µL/min/mg; in data set [3], 30.4 µL/min/mg; in data set [4], 48.2 µL/min/mg.

Consider `Cc1c2c(nn1C)CSCc1cc(n(C)n1)CSc1cc(c3ccc(F)cc3c1)OCCCn1c(C(=O)O)c(C(F)(F)F)c3c-2c(Cl)ccc31` [Cpd. No. 24, (Z)-1^5-chloro-9^6-fluoro-2^1,2^5,6^1-trimethyl-1^3-(trifluoromethyl)-1^1H,2^1H,6^1H-10-oxa-4,8-dithia-1(4,1)-indola-2(4,3),6(3,5)-dipyrazola-9(3,1)-naphthalenacyclotridecaphane-1^2-carboxylic acid], for which the IC50 in data set [1] was 0.015 µM; in the data set on OPM-2 cells (Homo sapiens, OPM-2, 24 h), 5.42 µM; with NCI-H929 cells (Homo sapiens, NCI-H929, 24 h), 3.04 µM. In addition, the microsomal CLint at 5 μM in data set [2] came out at 28.8 µL/min/mg; in data set [3], 122 µL/min/mg; in data set [4], 21.8 µL/min/mg.

`Cc1c(C(=O)O)n2c3ccc(Cl)c(c13)-c1c(nn3c1COCC3)CN(CCNS(C)(=O)=O)Cc1cc(n(C)n1)CSc1cc(c3ccc(F)cc3c1)OCCC2` [Cpd. No. 51, (Z)-1^5-chloro-9^6-fluoro-1^3, 6^1-di methyl-4-(2-(methylsulfonamido)ethyl)-26,27-dihydro-1^1H,2^4H,6^1H-10-oxa-8-thia-4-aza-2(3,2)-pyrazolo[5,1-c][1,4]oxazina-1(4,1)-indola-6(3,5)-pyrazola-9(3,1)-naphthalenacyclotridecaphane-1^2-carb oxylic acid]: the IC50 in data set [1] is 0.017 µM; in the data set with OPM-2 cells (Homo sapiens, OPM-2, 24 h), 5.82 µM; in the data set with NCI-H929 cells (Homo sapiens, NCI-H929, 24 h), 1.54 µM. The microsomal CLint at 5 μM was 30.6 µL/min/mg in data set [2], 15 µL/min/mg in data set [3] and 7.4 µL/min/mg in data set [4].
